Measurements from patent publication US20090270391A1, “THIENOPYRIDINE DERIVATIVE, OR QUINOLINE DERIVATIVE, OR QUINAZOLINE DERIVATIVE, HAVING c-MET AUTOPHOSPHORYLATION INHIBITING POTENCY” (Kirin Pharma Kabushiki Kaisha, priority 2005, published 2009).

Columns and labels:
KDR = KDR (Homo sapiens, UniProt P35968); assay: KDR autophosphorylation inhibitory activity (general statement)
c-Met [1] = target: T1, c-Met (Homo sapiens, UniProt P08581); assay: c-Met autophosphorylation inhibitory activity (general statement)
Target sequence in this assay (P08581 25-1390): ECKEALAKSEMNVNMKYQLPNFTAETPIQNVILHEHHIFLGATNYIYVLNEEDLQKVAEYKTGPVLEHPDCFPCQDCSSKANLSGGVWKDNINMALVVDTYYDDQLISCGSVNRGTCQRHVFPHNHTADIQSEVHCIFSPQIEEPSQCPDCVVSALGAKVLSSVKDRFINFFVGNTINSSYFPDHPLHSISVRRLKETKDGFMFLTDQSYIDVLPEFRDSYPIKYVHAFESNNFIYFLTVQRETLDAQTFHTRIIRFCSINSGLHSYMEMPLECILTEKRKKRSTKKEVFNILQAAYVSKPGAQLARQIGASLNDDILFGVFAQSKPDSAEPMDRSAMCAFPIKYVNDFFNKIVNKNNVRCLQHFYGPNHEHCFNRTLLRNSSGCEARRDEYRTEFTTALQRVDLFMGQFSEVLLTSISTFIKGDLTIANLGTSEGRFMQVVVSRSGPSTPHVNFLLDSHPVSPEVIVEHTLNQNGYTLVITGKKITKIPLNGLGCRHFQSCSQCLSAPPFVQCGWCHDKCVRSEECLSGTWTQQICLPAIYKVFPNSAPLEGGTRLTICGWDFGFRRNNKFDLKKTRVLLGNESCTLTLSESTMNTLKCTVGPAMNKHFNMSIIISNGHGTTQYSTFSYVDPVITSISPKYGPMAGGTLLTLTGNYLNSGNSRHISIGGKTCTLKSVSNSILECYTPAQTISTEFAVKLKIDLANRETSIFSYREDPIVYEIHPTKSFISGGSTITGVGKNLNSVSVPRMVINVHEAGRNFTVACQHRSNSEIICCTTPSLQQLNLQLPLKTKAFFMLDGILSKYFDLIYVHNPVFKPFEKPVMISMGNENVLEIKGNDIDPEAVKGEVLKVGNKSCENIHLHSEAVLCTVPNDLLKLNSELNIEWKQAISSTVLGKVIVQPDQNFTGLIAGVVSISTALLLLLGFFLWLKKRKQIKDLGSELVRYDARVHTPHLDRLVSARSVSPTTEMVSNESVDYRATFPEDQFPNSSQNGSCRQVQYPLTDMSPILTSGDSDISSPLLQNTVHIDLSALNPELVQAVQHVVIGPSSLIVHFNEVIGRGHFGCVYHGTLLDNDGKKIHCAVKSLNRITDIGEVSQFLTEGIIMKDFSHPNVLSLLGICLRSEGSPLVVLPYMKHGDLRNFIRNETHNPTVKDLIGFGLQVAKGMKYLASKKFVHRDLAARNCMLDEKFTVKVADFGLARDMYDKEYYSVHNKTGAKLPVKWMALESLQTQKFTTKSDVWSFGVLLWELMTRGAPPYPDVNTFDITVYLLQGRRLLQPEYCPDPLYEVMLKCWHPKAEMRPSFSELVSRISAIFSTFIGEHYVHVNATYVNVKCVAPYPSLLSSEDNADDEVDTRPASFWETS

c-Met [2] = target: T1, c-Met; assay: Measurement of human c-Met enzyme inhibitory activity (ELISA, Poly Glu:Tyr); type: biochemical; parameters: a part (955 to 1368aa) around human c-Met kinase domain; GST; made in house; host or cells: SF9 insect cells (baculovirus); conditions: human c-Met kinase domain (955 to 1368aa), ATP 10 μM
Description: cDNA coding for a part (955 to 1368aa) around human c-Met kinase domain was integrated into a pFastBac vector (Invitrogen) with a GST tag inserted therein, followed by transformation into DH10Bac to give Bacmid DNA which was then introduced into SF9 cells (GIBCO). Infection with a virus liquid was repeated five times, and SF9 cells were then broken, followed by purification using a GSH column to give a c-Met kinase active protein.
Poly Glu: Tyr=4:1 (SIGMA) was coated onto a 96-well immunoplate (442404, NALGE NUNC International K.K.). Kinase buffer (50 mM HEPES (pH 7.5), 25 mM NaCl, 0.01 mM Na3VO4, 0.01% BSA), a test compound, and the kinase protein were added, and the mixture was incubated for 10 min. ATP (10 μM, SIGMA) was then added, and a reaction was allowed to proceed for 10 min. The plate was washed three times with PBST and was reacted with a primary antibody PY-20 (BD-610000, B.D. Bioscience) and a secondary antibody GAM (NA-9310V, Abersham) each at room temperature for one hr. The plate was washed with PBST, color development was then carried out with SUMILON (ML-1120T, Sumitomo Bakelite Co., Ltd.), and phosphorylated tyrosine was quantitatively determined by measuring the absorbance at 450 nm. IC50 was calculated based on a concentration difference curve for the test compound by presuming the absorbance of the wells without the addition of ATP to be 100% inhibition and the absorbance of the wells with the addition of the medium for the test compound and ATP to be 0% inhibition.
Target sequence in this assay (P08581 955-1368): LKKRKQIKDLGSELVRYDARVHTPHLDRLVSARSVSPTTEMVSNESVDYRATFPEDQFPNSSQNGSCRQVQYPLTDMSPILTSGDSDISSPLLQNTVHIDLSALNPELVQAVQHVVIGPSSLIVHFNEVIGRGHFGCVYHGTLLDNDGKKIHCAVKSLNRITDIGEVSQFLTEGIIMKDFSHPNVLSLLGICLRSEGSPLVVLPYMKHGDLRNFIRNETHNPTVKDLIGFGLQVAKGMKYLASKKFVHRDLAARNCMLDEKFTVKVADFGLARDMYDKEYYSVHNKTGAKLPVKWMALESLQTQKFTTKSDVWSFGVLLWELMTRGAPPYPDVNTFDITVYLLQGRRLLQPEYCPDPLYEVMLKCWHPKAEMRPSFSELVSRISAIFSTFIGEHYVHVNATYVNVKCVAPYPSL

c-Met [3] = target: T1, c-Met; assay: Measurement (2) of inhibitory activity against c-Met autophosphorylation using ELISA method (MKN45 cells); type: cell-based; parameters: endogenous in cells; host or cells: MKN45; conditions: c-Met phosphorylation in MKN45 cells, no HGF
Description: Human gastric cancer cell line MKN45 (available from Riken) was cultured in an RPMI 1640 medium containing 10% fetal calf serum (purchased from GIBCO BRL) within a 5% carbon dioxide incubator until 50 to 90% confluent. The harvested cells were inoculated into wells, containing an RPMI medium containing 0.1% fetal calf serum, in a 96-well flat-bottom plate in an amount of 2×10^4 per well, followed by cultivation at 37° C. overnight. The medium was then replaced by a fresh RPMI medium containing 0.1% fetal calf serum. The test compound dissolved in dimethyl sulfoxide was added to each well, and the cultivation was continued at 37° C. for additional one hr. The medium was removed, the cells were washed with phosphate buffered physiological saline (pH 7.4), and 50 μl of a solubilization buffer (20 mM HEPES (pH 7.4), 150 mM NaCl, 0.2%/0 Triton X-100, 100, 10% glycerol, 5 mM sodium orthovanadylate, 5 mM disodium ethylenediaminetetraacetate, and 2 mM Na4P2O7) was then added thereto. The mixture was shaken at 4° C. for 2 hr to prepare a cell extract.
Separately, phosphate buffered physiological saline (50 μl, pH 7.4) containing 5 μg/ml anti-phospho-tyrosine antibody (PY20; purchased from Transduction Laboratories) was added to a microplate for ELISA (Maxisorp; purchased from NUNC), followed by standing at 4° C. overnight to form a solid phase. After washing of the plate, 300 μl of a blocking solution was added, followed by standing at room temperature for 2 hr to perform blocking. After washing, the whole quantity of the cell extract was transferred, and the plate was then allowed to stand at 4° C. overnight. After washing, an anti-HGF receptor antibody (h-Met (C-12), purchased from Santa Cruz Biotechnology) was allowed to react at room temperature for one hr, and, after washing, a peroxidase-labeled anti-rabbit Ig antibody (purchased from Amersham) was allowed to react at room temperature for one hr. After washing, a chromophoric substrate for peroxidase (purchased from Sumitomo Bakelite Co., Ltd.) was added thereto to initiate a reaction. After a suitable level of color development, a reaction termination solution was added to stop the reaction, and the absorbance at 450 nm was measured with a microplate reader. The c-Met phosphorylation activity for each well was determined by presuming the absorbance without the addition of the test compound to be 100% c-Met phosphorylation activity and the absorbance with the addition of a largely excessive amount of positive control to be 0% c-Met phosphorylation activity. The concentration of the test compound was varied on several levels, the inhibition rate of c-Met-phosphorylation was determined for each case, and the concentration of the test compound necessary for inhibiting 50% of c-Met phosphorylation (IC50) was calculated.
Target sequence in this assay (P08581 25-1390): as the sequence (P08581 25-1390) above

[4] = system: Human gastric cancer cell line MKN 45; assay: Tumor growth inhibitory activity against human gastric cancer cell line MKN 45 in nude mice; type: in vivo; conditions: oral once a day
Description: Human gastric cancer cell line MKN 45 (available from Riken) was transplanted into nude mice. […] The test compound suspended in 0.5% methylcellulose was orally administered once a day for 9 days.
Only 0.5% methylcellulose was administered to the control group in the same manner as in the test groups. The tumor growth inhibition rate (TGIR) was calculated as follows: The tumor growth inhibition rate (TGIR)=(1−TX/CX)×100 wherein CX represents the volume of tumor at day X for the control group and TX represents the volume of tumor for test compound administration groups, when the tumor volume at the day of the start of the administration was presumed to be 1.

KDR, sequence (P35968 20-1356): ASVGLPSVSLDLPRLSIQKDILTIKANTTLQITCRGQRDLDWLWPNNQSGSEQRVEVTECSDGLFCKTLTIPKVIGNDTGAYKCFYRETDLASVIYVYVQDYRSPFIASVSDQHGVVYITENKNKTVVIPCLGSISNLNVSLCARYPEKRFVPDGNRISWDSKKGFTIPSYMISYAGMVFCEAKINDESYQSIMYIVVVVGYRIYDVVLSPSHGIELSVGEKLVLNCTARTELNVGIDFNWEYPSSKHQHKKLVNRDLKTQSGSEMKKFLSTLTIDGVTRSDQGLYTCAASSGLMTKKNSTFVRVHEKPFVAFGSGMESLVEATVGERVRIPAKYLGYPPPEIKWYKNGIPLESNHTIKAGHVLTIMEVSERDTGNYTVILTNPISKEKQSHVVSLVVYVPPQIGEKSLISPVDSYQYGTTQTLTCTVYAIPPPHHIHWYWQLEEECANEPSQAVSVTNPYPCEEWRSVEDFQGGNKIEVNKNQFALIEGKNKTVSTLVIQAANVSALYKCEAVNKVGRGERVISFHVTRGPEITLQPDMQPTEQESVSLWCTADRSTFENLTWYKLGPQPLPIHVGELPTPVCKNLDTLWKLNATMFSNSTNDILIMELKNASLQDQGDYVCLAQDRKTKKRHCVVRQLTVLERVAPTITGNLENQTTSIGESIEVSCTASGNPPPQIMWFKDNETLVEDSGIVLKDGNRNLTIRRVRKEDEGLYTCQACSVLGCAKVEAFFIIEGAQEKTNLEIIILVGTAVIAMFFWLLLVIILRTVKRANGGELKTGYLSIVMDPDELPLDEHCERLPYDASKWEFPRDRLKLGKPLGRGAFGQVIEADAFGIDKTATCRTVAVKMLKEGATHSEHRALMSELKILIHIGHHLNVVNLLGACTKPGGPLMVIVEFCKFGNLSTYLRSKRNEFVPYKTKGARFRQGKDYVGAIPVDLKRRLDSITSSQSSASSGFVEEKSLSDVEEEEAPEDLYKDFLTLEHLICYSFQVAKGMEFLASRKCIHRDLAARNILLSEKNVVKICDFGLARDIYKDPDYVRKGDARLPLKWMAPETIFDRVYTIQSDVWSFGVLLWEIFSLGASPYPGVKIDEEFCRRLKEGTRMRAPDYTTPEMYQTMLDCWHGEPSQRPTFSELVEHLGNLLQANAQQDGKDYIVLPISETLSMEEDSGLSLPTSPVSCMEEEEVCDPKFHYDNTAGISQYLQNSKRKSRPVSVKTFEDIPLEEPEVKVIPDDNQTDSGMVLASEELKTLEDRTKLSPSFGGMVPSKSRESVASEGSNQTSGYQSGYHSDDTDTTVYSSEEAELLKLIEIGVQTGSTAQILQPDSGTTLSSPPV

| SMILES | KDR autophosphorylation inhibitory activity (KDR) | c-Met autophosphorylation inhibitory activity (c-Met [1]) | IC50 (c-Met [2]) | IC50 (c-Met [3]) | TGIR (tumor growth inhibition rate) ([4]; 9th day) | TGIR (tumor growth inhibition rate) ([4]; 10th day) |
| --- | --- | --- | --- | --- | --- | --- |
| COc1cc(Oc2ccnc3cc(OCCCN4CCOCC4)c(OC)cc23)ccc1NC(=S)NC(=O)Cc1ccccc1 [Compound B, N-{2-methoxy-4-[6-methoxy-7-(3-morpholinopropoxy)-4-quinolyl]oxyphenyl}-N′-(2-phenylacetyl)thiourea] | low | high | – | – | – | – |
| Cn1ccnc1-c1cc2nccc(Oc3ccc(NC(=S)NC(=O)Cc4ccc(F)cc4)cc3Cl)c2s1 [Example 1, N-(3-Chloro-4-{[2-(1-methyl-1H-2-imidazolyl)thieno[3,2-b]pyridin-7-yl]oxy}phenyl)-N-[2-(4-fluorophenyl)-acetyl]thiourea] | – | – | 3.2 nM | 32.8 nM | 63.8% | – |
| COc1cc(Oc2ccnc3cc(OC)c(OC)cc23)ccc1NC(=S)NC(=O)Cn1ncc2ccccc21 [Example 15, N-4-[(6,7-Dimethoxy-4-quinolyl)oxy]-2-methoxyphenyl-N′-[2-(1 H-1-indazolyl)acetyl]thiourea] | – | – | 9.6 nM | 13.2 nM | – | – |

Second part, led by results:

| KDR autophosphorylation inhibitory activity (KDR) | c-Met autophosphorylation inhibitory activity (c-Met [1]) | IC50 (c-Met [2]) | IC50 (c-Met [3]) | SMILES | TGIR (tumor growth inhibition rate) ([4]; 9th day) | TGIR (tumor growth inhibition rate) ([4]; 10th day) |
| --- | --- | --- | --- | --- | --- | --- |
| – | – | 12.5 nM | 22.3 nM | COc1cc2nccc(Oc3ccc(NC(=O)NC(=O)Cn4ncc5ccccc54)cc3F)c2cc1OC [Example 14, N-4-[(6,7-Dimethoxy-4-quinolyl)oxy]-3-fluorophenyl-N′-[2-(1H-1-indazolyl)acetyl]urea] | – | 42.6% |
| – | – | – | 35.9 nM | COc1cc2nccc(Oc3ccc(NC(=O)NC(=O)Cn4ccc5ccccc54)cc3F)c2cc1OC [Example 16, N-4-[(6,7-Dimethoxy-4-quinolyl)oxy]-3-fluorophenyl-N′-[2-(1H-1-indolyl)acetyl]urea] | – | – |
